The values that follow are results of earlier work, collected in patent US20030212112A1, “Method for administering a phosphodiesterase 4 inhibitor” (SmithKline Beecham Corporation, priority 1999, published 2003).

For this series the following is noted: clinical studies / indications reported in background.

On to `CCCCn1c(=O)c2c(ncn2CC(C)=O)n(CCCC)c1=O` [denbufylline], for which the side effects entry is “may include pyrosis, nausea and emesis”.
Turning to `COc1ccc(C2CNC(=O)C2)cc1OC1CCCC1` (centres unmarked) [rolipram], the side effects entry is “psychotropic activity and produces gastrointestinal effects”.
